Earlier results as cited in patent publication US12251467B2, “Vaginal hydrogel for delivery of therapeutics” (priority 2018, dated 2025).
In brackets after ≈: the same amount, converted by molar mass.

Which solubility in water does the source give for `Cc1ncc([N+](=O)[O-])n1CCOC(=O)c1ccccc1` [metronidazole benzoate] here?
Its solubility in water is 100 µg/mL (≈ 363 µM).
